Results published in patent publication EP4755892A1, “KINESIN KIF18A INHIBITOR AND USE THEREOF” (Shanghai Apeiron Therapeutics Company Limited, priority 2023, dated 2025).
Read-outs that look alike come from different tables or passages of the source.

Experiments:
[1] = molecular target: T1, Human KIF18A (amino acid sequence 1-417) (Homo sapiens, UniProt Q8NI77); test: Enzymatic Activity Test (ADP-Glo, microtubule-stimulated KIF18A ATPase); format: biochemical; conditions: 60 µg/mL microtubules, 25 µM ATP, 2.5 nM KIF18A protein, 120 min at ambient temperature, chemiluminescence; read-out: KIF 18A IC50
T1 construct: purchased Viva Biotech (Shanghai) Ltd
T1 sequence (Q8NI77 1-417): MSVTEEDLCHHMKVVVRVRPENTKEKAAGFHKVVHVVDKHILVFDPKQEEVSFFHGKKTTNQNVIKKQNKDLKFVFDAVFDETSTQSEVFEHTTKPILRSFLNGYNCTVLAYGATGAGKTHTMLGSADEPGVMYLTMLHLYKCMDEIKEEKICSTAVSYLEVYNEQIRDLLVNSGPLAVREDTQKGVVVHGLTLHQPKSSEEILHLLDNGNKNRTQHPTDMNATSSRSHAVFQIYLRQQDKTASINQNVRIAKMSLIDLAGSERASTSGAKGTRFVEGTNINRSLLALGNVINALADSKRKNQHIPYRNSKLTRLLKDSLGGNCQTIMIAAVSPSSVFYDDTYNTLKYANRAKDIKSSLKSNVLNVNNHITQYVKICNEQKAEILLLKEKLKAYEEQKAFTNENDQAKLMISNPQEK
Method: Assay 1: Enzymatic Activity Test
Materials: Human KIF18A (amino acid sequence 1-417) was purchased from Viva Biotech (Shanghai) Ltd.; the ADP-Glo™ protein kinase kit was acquired from Promega, USA; tubulin was sourced from Cytoskeleton, USA; and the 384-well assay plate and Envision multifunctional microplate reader were obtained from PerkinElmer, USA.
Enzymatic Activity Test: The compound powder was dissolved in DMSO to prepare a stock solution of 10 mM. Then gradient dilution was performed for the compounds in the microplate to achieve a final concentration of 0-10 µM. Then, 2.5 µL each of tubulin, compound, ATP, and KIF18A protein were added to the microplate in sequence for reaction at ambient temperature for 120 min. The final concentrations in the enzyme reaction were 60 µg/mL for microtubules, 25 µM for ATP, and 2.5 nM for KIF18A protein. After the enzyme reaction, 10 µL of ADP-GLO reaction reagent was added to each well and incubated at room temperature for 30 min. After that, 20 µL of detection reagent was added to each well and incubated at room temperature for 30 min in the dark. Finally, chemiluminescence detection was performed using the PerkinElmer Envision.

[2] = test system: OVCAR3 cells; test: Cell Proliferation Activity Test (CyQUANT Direct), OVCAR3; format: cell-based; conditions: compound 0-10 µM, 3 days, 0.2% DMSO, CyQUANT fluorescence, read-out: OVCAR-3 _IC50_nM
Method: Assay 2: Cell Proliferation Activity Test
Materials and Cells: OVCAR3 cells were purchased from Nanjing Cobioer Biosciences Co., Ltd. RPMI-1640 medium, fetal bovine serum, and the CyQUANT Direct Cell Proliferation Assay kit were purchased from Thermo Fisher Scientific, USA; 96-well cell culture plates were sourced from Coming, USA.
Cell Culture: OVCAR3 cells were cultured with RPMI-1640 medium containing 10% fetal bovine serum and incubated in a 5% CO2 incubator at 37°C. Only cells in the logarithmic growth phase could be used for the test.
Cell Proliferation Activity Test:
OVCAR3 cells were inoculated into a 96-well cell culture plate at 90 µL per well and incubated overnight in a 5% CO2 incubator at 37°C. The compound powder was dissolved in DMSO to prepare a stock solution of 10 mM. Then gradient dilution was performed for the compounds in the microplate to achieve a final concentration of 0-10 µM. 10 µL of cell culture medium containing compounds was added to each well to make the final DMSO content 0.2%. The cell plates were incubated in a 5% CO2 incubator at 37°C for 3 days. 100 µL of CyQUANT detection reagent was added to each well, reacted at 37°C for 60 min, and fluorescence detection was performed using the PerkinElmer Envision.

[3] = test system: HT29 cells; test: CyQuant Cell Proliferation Activity Test, HT29; format: cell-based; conditions: HT29 cells 2000 per well, initial concentration 3000 nM, 3-fold dilution, 3 days, 0.2% DMSO, read-out: HT29_IC50 _nM
Method: Assay 3: CyQuant Cell Proliferation Activity Test
Materials and Cells: HT29 cells were purchased from Nanjing Cobioer Biosciences Co., Ltd.; RPMI-1640 medium, fetal bovine serum, Trypsin-EDTA (0.25%), 96-well plates, and CyQuant reagents were purchased from ThermoFisher (USA); DMSO was purchased from SIGMA (USA).
Cell Culture: HT29 cells were cultured with RPMI-1640 containing 10% fetal bovine serum under the condition of 37°C and 5% CO2. Only cells in the logarithmic growth phase could be used for the test.
Cell Proliferation Activity Test: CyQuant reagent was used to detect the proliferation inhibitory activity of compounds on HT29 cells. The cell density was adjusted, and 100 µL per well was inoculated into a 96-well plate (HT29 at 2000 cells per well), then incubated overnight at 37°C and 5% CO2. Add compounds of various target concentrations (initial concentration of 3000 nM, 3-fold dilution, 9 concentration gradients), and make the DMSO content 0.2%. The cell plate was incubated at 37°C in 5% CO2 for 3 days. CyQuant reagent was added and incubated for 1 h. The plates were read by Envision, and IC50 was calculated using XLFIT.

Row | Structure (SMILES) | IC50 [1] | IC50 ([2]; Homo sapiens, OVCAR-3, 72 h) | IC50 ([3]; Homo sapiens, HT-29, 72 h) | IC50 [2] | IC50 [3]
1 | COc1cc2nc(n1)N1CCC(F)(F)C(C=CCC3CCN(CC3)c3cc(NS(=O)(=O)CCO)ccc3C(=O)N2)C1 (stereo not drawn) [Example 24, (Z)-N-(1^4,1^4-difluoro-2^6-methoxy-4-oxo-3-aza-2(2,4)-pyrimidin-1(1,3),6(1,4)-dipiperidin-5(1,2)-benzeneheterocyclonon-8-en-5^4-yl)-2-hydroxyethane-1-sulfonamide] | 158 nM | 46 nM | 63 nM |  | 
2 | Cc1cc2nc(n1)N1CCCC(C=CCC3CCN(CC3)c3cc(NS(=O)(=O)CCO)cnc3C(=O)N2)C1 (stereo not drawn) [Example 2, (Z)-2-Hydroxy-N-(2^6-methyl-4-oxo-3-aza-2(2,4)-pyrimidin-5(2,3)-pyridin-1(1,3),6 (1,4)-dipiperidinylcyclononane-8-en-55-yl)ethane-1-sulfonamide] | 8 nM | 74 nM | 178 nM |  | 
3 | Cc1cc2nc(n1)N1CCCC(C=CCC3CCCN(C3)c3cc(NS(=O)(=O)CCO)ccc3C(=O)N2)C1 (stereo not drawn) [Example 10, 2-Hydroxy-N-(2^6-methyl-4-oxo-3-aza-2(2,4)-pyrimidin-1,6(1,3)-dipiperidin-5(1,2) -benzeneheterocyclononane-8-en-5^4-yl)ethane-1-sulfonamide] | 200 nM | 136 nM | 172 nM |  | 
4 | Cc1cc2nc(n1)N1CCOC(C=CCC3CCN(CC3)c3cc(NS(=O)(=O)CCO)ccc3C(=O)N2)C1 (stereo not drawn) [Example 25, 2-Hydroxy-N-((1^2S)-2^6-methyl-4-oxo-3-aza-1(4,2)-morpholin-2(2,4)-pyrimidin-6(1,4)-piperidin-5(1,2)-benzeneheterocyclonon-8-en-5^4-yl)ethane-1-sulfonamide] | 13 nM | 8.5 nM | 10.9 nM |  | 
5 | Cc1cc2nc(n1)N1CCCC(C=CCC3CCN(CC3)c3cc(NS(=O)(=O)CCO)ccc3C(=O)N2)C1 (stereo not drawn) [Example 1C, 2-Hydroxy-N-((1^3S,Z)-2^6-methyl-4-oxo-3-aza-2(2,4)-pyrimidin-1(1,3),6(1,4)-dipiperidin-5(1,2)-benzoaza-8-en-5^4-yl)ethane-1-sulfonamide] | 36 nM |  |  | 61 nM | 78 nM
6 | O=C1Nc2cccc(c2)S(=O)(=O)NCC=CC2CCN(CC2)c2cc(NS(=O)(=O)CCO)ccc21 [Example 15, (E)-N-(6,6-dioxo-3-oxo-6-thia-4,7-diaza-1(1,4)-piperidin-2(1,2),5(1,3)-diphenylheterocyclodec-9-en-2^5-yl)-2-hydroxy-1-ethanesulfonamide] | 275 nM | > 3000 nM | > 3000 nM |  | 
7 | Cc1cc2nc(n1)N1CCCC(C=CCC3CCN(CC3)c3cc(NS(=O)(=O)CCO)ccc3C(=O)N2)C1 (stereo not drawn) [Example 1D, 2-Hydroxy-N-((1^3R,Z)-2^6-methyl-4-oxo-3-aza-2(2,4)-pyrimidin-1(1,3),6(1,4)-dipiperidin-5(1,2)-benzoaza-8-en-5^4-yl)ethane-1-sulfonamide] | 246 nM |  |  | 506 nM | 746 nM
8 | Cc1cc2nc(n1)N1CCC(F)(F)C(=CCCC3CCN(CC3)c3cc(NS(=O)(=O)CCO)ccc3C(=O)N2)C1 [Example 21, N-(1^4,1^4-difluoro-2^6-methyl-4-oxo-3-aza-2(2,4)-pyrimidin-1(1,3),6(1,4)-dipiperidin-5(1,2)-benzeneheterocyclonon-9-en-5^4-yl)-2-hydroxyethane-1-sulfonamide] | 305 nM | 744 nM | 703 nM |  | 
9 | Cc1cc2nc(n1)N1CCC(F)(F)C(C=CCC3CCN(CC3)c3cc(NS(=O)(=O)CCO)ccc3C(=O)N2)C1 (stereo not drawn) [Example 18D, N-((1^3R,Z)-1^4,1^4-difluoro-2^6-methyl-4-oxo-3-aza-2(2,4)-pyrimidin-1(1,3),6(1,4)-dipiperidin-5(1,2)-benzeneheterocyclononane-8-en-5^4-yl)-2-hydroxyethane-1-sulfon amide] | 345 nM |  |  | 458 nM | 660 nM
10 | Cc1cc2nc(n1)N1CCC(F)(F)C(CCCC3CCN(CC3)c3cc(NS(=O)(=O)CCO)ccc3C(=O)N2)C1 (stereo not drawn) [Example 23B, N-((1^3R)-1^4,1^4-difluoro-2^6-methyl-4-oxo-3-aza-2(2,4)-pyrimidin-1(1,3),6(1,4)-dipiperidin-5(1,2)-benzeneheterocyclononane-5^4-yl)-2-hydroxyethane-1-sulfonamide] | 71.5 nM |  |  | 28 nM | 32 nM
11 | O=C1Nc2cccc(c2)S(=O)(=O)NCCCCC2CCN(CC2)c2cc(NS(=O)(=O)CCO)ccc21 [Example 14, N-(6,6-dioxo-3-oxo-6-thia-1(1,4)-piperidin-2(1,2),5(1,3)-diphenylheterocycloundecane-2^5-yl)-2-hydroxy-1-ethanesulfonamide] | 21 nM | 85 nM | 152 nM |  | 
